US20090004162A1, “Hecgf-1 Related Polymorphisms and Applications Thereof” (priority 2005, published 2009)

Experiments:
[1] = system: CTL clone RDR173; assay: IFN-γ ELISA: recognition of peptide-pulsed donor-derived EBV-LCL cells by CTL clone RDR173; type: cell-based, human; details: peptide pulsed on donor-derived EBV-LCL cells 2 h 37° C., coculture 24 h
Procedure: FIG. 5. CTL clone RDR173 recognizes the minimal epitope RPHAIRRPLAL. (a) Overlapping 9-, 10- and 11-mer peptides (1 μg/ml) were pulsed on donor-derived EBV-LCL cells for 2 h at 37° C. Peptide-pulsed EBV-LCLs were cocultured with CTL clone RDR173 for 24 h. Release of IFN-γ in the supernatant was measured by ELISA. (b) Increasing concentrations of the patient-derived peptide RPHAIRRPLAL (filled symbols) and the donor-derived peptide RPRAIRRPLAL (open symbols) were pulsed on donor-derived EBV-LCL cells for 2 h at 37° C. Peptide-pulsed EBV-LCLs were cocultured with CTL clone RDR173 for 24 h. Release of IFN-γ in the supernatant was measured by ELISA.
EBV-LCL cells were seeded at 3×10^4 cells/well together with 5×10^3 T cells in 96-well round bottom plate. For blocking studies, target cells were preincubated with antibodies against HLA class I (w6/32), HLA class II (PdV5.2) or HLA-B/C alleles (B1.23.2) for 30 min at room temperature. After 24 h incubation at 37° C., release of IFN-γ in the supernatant was measured using standard ELISA (Sanguin, Amsterdam, the Netherlands).

[2] = system: CTL clone RDR173; assay: IFN-γ ELISA: recognition by CTL clone RDR173 of target cells pulsed with long peptide (processing and presentation); type: cell-based, human
Procedure: FIG. 7. Pulsing target cells with the 23-mer peptide leads to efficient processing and presentation LB-ECGF-1H epitope. CD 14+ cells were pulsed with titrated concentrations of the 11- and 23-mer hECGF-1 peptide for 4 h at 37° C. Target cells (3×10^4) were incubated with CTL clone RDR173 (10^4) for 24 h at 37° C. Release of IFN-γ in the supernatant was measured by ELISA.
FIG. 8. The LB-ECGF-1H epitope can be processed and presented by various target cells upon pulsing with the 23-mer peptide. HLA-B7-positive EBV-LCL cells (EBV), peripheral blood lymphocytes (PBL), phytohemagglutinin activated T cells (PHA blasts), CD14^+ cells (CD14) and CD19^+ cells (CD19) were pulsed with titrated concentrations of the 23-mer HECGF-1 peptide for 4 h at 37° C. Target cells (3×10^4) were incubated with CTL clone RDR173 (10^4) for 24 h at 37° C. Release of IFN-γ in the supernatant was measured by ELISA.
The 23-mer peptide […] containing the epitope (depicted in bold) was synthesized. Target cells were pulsed with titrated concentration of the long peptide for 4 hours at 37° C. and tested for recognition by CTL clone RDR173.

RPHAIRRPLAL [LB-ECGF-1H]
Recognition by CTL clone RDR173 (IFN-γ release) [1]: the epitope recognized by CTL clone RDR173

RPRAIRPLAL [LB-ECGF-1R, donor-derived peptide variant with Arg instead of His]
Recognition by CTL clone RDR173 (IFN-γ release) [1]: not recognized

RPAGGARTLRPHAIRRPLALRRA [23-mer peptide]
Recognition by CTL clone RDR173 (IFN-γ release) after pulsing with long peptide ([2]; CD14+ cells pulsed 4 h at 37° C., titrated concentrations, FIG. 7): efficient recognition | Processing and presentation of the epitope by various target cells ([2]; EBV-LCL, PHA blast and CD14+ cells pulsed 4 h at 37° C., FIG. 8): have the ability to process and present the epitope
